How the values were obtained:
Experiment in all cases: Test D pre-/postemergence plant response
Format in all cases: in vivo
Details in all cases: Postemergence
[1] = test system: field bindweed (Convolvulus arvensis)
Method in brief: (§1)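 Visual 0–100 scoring (100 = complete control) versus untreated controls after 14–21 greenhouse days. Compounds, formulated in surfactant-containing non-phytotoxic solvent, were applied preemergence to seeded loam/sand and postemergence to 2–18 cm plants (1–4 leaves).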

[2] = test system: spanishneedles (Bidens bipinnata)
Method in brief: as §1

[3] = test system: Russian thistle (Salsola kali)
Method in brief: as §1

[4] = test system: morningglory (pitted morningglory, Ipomoea lacunosa)
Method in brief: as §1

[5] = test system: signalgrass (broadleaf signalgrass, Brachiaria platyphylla)
Method in brief: as §1

[6] = test system: ragweed (common ragweed, Ambrosia elatior)
Method in brief: as §1

[7] = test system: black mustard (Brassica nigra)
Method in brief: as §1

[8] = test system: bluegrass (annual bluegrass, Poa annua)
Method in brief: as §1

[9] = test system: chickweed (common chickweed, Stellaria media)
Method in brief: as §1

[10] = test system: purslane (common purslane, Portulaca oleracea)
Method in brief: as §1

[11] = test system: nutsedge (purple nutsedge, Cyperus rotundus)
Method in brief: as §1

[12] = test system: Italian ryegrass (Lolium multiflorum)
Method in brief: as §1

[13] = test system: quackgrass (Elytrigia repens)
Method in brief: as §1

[14] = test system: sandbur (southern sandbur, Cenchrus echinatus)
Method in brief: as §1

[15] = test system: prickly sida (Sida spinosa)
Method in brief: as §1

[16] = test system: large crabgrass (Digitaria sanguinalis)
Method in brief: as §1

[17] = 125 g ai/ha, scale 0 to 100 (0 no effect, 100 complete control)
[18] = 250 g ai/ha, scale 0 to 100 (0 no effect, 100 complete control)
[19] = 62 g ai/ha, scale 0 to 100 (0 no effect, 100 complete control)
[20] = 31 g ai/ha, scale 0 to 100 (0 no effect, 100 complete control)

In the case of CCCn1c(-c2ccccc2)ncc(C(=O)C2=C(O)C3CCC(C3)C2=O)c1=O (stereo not drawn) [Compound 226], the “Plant response rating, Field Bindweed” value [1, 17] is reported as 70, the “Plant response rating, Field Bindweed” value [1, 18] is reported as 80 and the “Plant response rating, Field Bindweed” value [1, 19] is reported as 70. The “Plant response rating, Spanishneedles” value [2, 17] was 75, the “Plant response rating, Spanishneedles” value [2, 18] was 80 and the “Plant response rating, Spanishneedles” value [2, 19] was 75. For the same compound, the “Plant response rating, Russian Thistle” value [3, 17] was 40, the “Plant response rating, Russian Thistle” value [3, 18] was 70 and the “Plant response rating, Morningglory” value [4, 17] was 70. For the same compound, the “Plant response rating, Morningglory” value [4, 18] was 80, the “Plant response rating, Morningglory” value [4, 19] was 70 and the “Plant response rating, Signalgrass” value [5, 17] was 65. For the same compound, the “Plant response rating, Signalgrass” value [5, 18] was 65, the “Plant response rating, Signalgrass” value [5, 19] was 40 and the “Plant response rating, Ragweed” value [6, 17] was 90. The “Plant response rating, Ragweed” value [6, 18] was 98, the “Plant response rating, Ragweed” value [6, 19] was 90 and the “Plant response rating, Black Mustard” value [7, 20] was 65. For the same compound, the “Plant response rating, Black Mustard” value [7, 17] was 80, the “Plant response rating, Black Mustard” value [7, 18] was 85 and the “Plant response rating, Black Mustard” value [7, 19] was 80. For the same compound, the “Plant response rating, Bluegrass” value [8, 20] was 0, the “Plant response rating, Bluegrass” value [8, 17] was 10 and the “Plant response rating, Bluegrass” value [8, 18] was 30. For the same compound, the “Plant response rating, Bluegrass” value [8, 19] was 10, the “Plant response rating, Chickweed” value [9, 17] was 35 and the “Plant response rating, Chickweed” value [9, 18] was 85. The “Plant response rating, Chickweed” value [9, 19] was 35, the “Plant response rating, Purslane” value [10, 17] was 65 and the “Plant response rating, Purslane” value [10, 18] was 70. The “Plant response rating, Purslane” value [10, 19] was 50, the “Plant response rating, Nutsedge, Purple” value [11, 17] was 0 and the “Plant response rating, Nutsedge, Purple” value [11, 18] was 5. For the same compound, the “Plant response rating, Nutsedge, Purple” value [11, 19] was 0, the “Plant response rating, Ryegrass, Italian” value [12, 17] was 0 and the “Plant response rating, Ryegrass, Italian” value [12, 18] was 15. For the same compound, the “Plant response rating, Ryegrass, Italian” value [12, 19] was 0, the “Plant response rating, Quackgrass” value [13, 17] was 20 and the “Plant response rating, Quackgrass” value [13, 18] was 35. The “Plant response rating, Quackgrass” value [13, 19] was 0, the “Plant response rating, Sandbur” value [14, 17] was 75 and the “Plant response rating, Sandbur” value [14, 18] was 75. For the same compound, the “Plant response rating, Sandbur” value [14, 19] was 75, the “Plant response rating, Prickly Sida” value [15, 17] was 70 and the “Plant response rating, Prickly Sida” value [15, 18] was 75. For the same compound, the “Plant response rating, Prickly Sida” value [15, 19] was 65, the “Plant response rating, Crabgrass, Large” value [16, 17] was 75 and the “Plant response rating, Crabgrass, Large” value [16, 18] was 85. For the same compound, the “Plant response rating, Crabgrass, Large” value [16, 19] was 75.
CCCCn1c(-c2ccccc2)ncc(C(=O)C2=C(O)C3CCC(C3)C2=O)c1=O (stereo not drawn) [Compound 240] was tested, and the “Plant response rating, Field Bindweed” value ([1]; 31 g ai/ha, scale 0 to 100) was 60, the “Plant response rating, Field Bindweed” value [1, 17] was 70 and the “Plant response rating, Field Bindweed” value [1, 18] was 70. The “Plant response rating, Field Bindweed” value [1, 19] was 70, the “Plant response rating, Spanishneedles” value ([2]; 31 g ai/ha, scale 0 to 100) was 65 and the “Plant response rating, Spanishneedles” value [2, 17] was 75. For the same compound, the “Plant response rating, Spanishneedles” value [2, 18] was 75, the “Plant response rating, Spanishneedles” value [2, 19] was 65 and the “Plant response rating, Russian Thistle” value ([3]; 31 g ai/ha, scale 0 to 100) was 35. For the same compound, the “Plant response rating, Russian Thistle” value [3, 18] was 35, the “Plant response rating, Russian Thistle” value [3, 19] was 35 and the “Plant response rating, Morningglory” value ([4]; 31 g ai/ha, scale 0 to 100) was 65. The “Plant response rating, Morningglory” value [4, 17] was 90, the “Plant response rating, Morningglory” value [4, 18] was 95 and the “Plant response rating, Morningglory” value [4, 19] was 80. The “Plant response rating, Signalgrass” value ([5]; 31 g ai/ha, scale 0 to 100) was 20, the “Plant response rating, Signalgrass” value [5, 17] was 75 and the “Plant response rating, Signalgrass” value [5, 18] was 85. The “Plant response rating, Signalgrass” value [5, 19] was 75, the “Plant response rating, Ragweed” value ([6]; 31 g ai/ha, scale 0 to 100) was 70 and the “Plant response rating, Ragweed” value [6, 17] was 80. For the same compound, the “Plant response rating, Ragweed” value [6, 18] was 90, the “Plant response rating, Ragweed” value [6, 19] was 75 and the “Plant response rating, Black Mustard” value ([7]; 31 g ai/ha, scale 0 to 100) was 70. For the same compound, the “Plant response rating, Black Mustard” value [7, 17] was 98, the “Plant response rating, Black Mustard” value [7, 18] was 98 and the “Plant response rating, Black Mustard” value [7, 19] was 80. For the same compound, the “Plant response rating, Bluegrass” value ([8]; 31 g ai/ha, scale 0 to 100) was 5, the “Plant response rating, Bluegrass” value [8, 17] was 35 and the “Plant response rating, Bluegrass” value [8, 18] was 35. For the same compound, the “Plant response rating, Bluegrass” value [8, 19] was 35, the “Plant response rating, Chickweed” value ([9]; 31 g ai/ha, scale 0 to 100) was 25 and the “Plant response rating, Chickweed” value [9, 17] was 60. The “Plant response rating, Chickweed” value [9, 18] was 70, the “Plant response rating, Chickweed” value [9, 19] was 50 and the “Plant response rating, Purslane” value ([10]; 31 g ai/ha, scale 0 to 100) was 0. For the same compound, the “Plant response rating, Purslane” value [10, 18] was 50, the “Plant response rating, Purslane” value [10, 19] was 35 and the “Plant response rating, Nutsedge, Purple” value ([11]; 31 g ai/ha, scale 0 to 100) was 0. The “Plant response rating, Nutsedge, Purple” value [11, 17] was 5, the “Plant response rating, Nutsedge, Purple” value [11, 18] was 20 and the “Plant response rating, Nutsedge, Purple” value [11, 19] was 5. For the same compound, the “Plant response rating, Ryegrass, Italian” value ([12]; 31 g ai/ha, scale 0 to 100) was 0, the “Plant response rating, Ryegrass, Italian” value [12, 17] was 35 and the “Plant response rating, Ryegrass, Italian” value [12, 18] was 35. The “Plant response rating, Ryegrass, Italian” value [12, 19] was 35, the “Plant response rating, Quackgrass” value ([13]; 31 g ai/ha, scale 0 to 100) was 25 and the “Plant response rating, Quackgrass” value [13, 17] was 35. For the same compound, the “Plant response rating, Quackgrass” value [13, 18] was 50, the “Plant response rating, Quackgrass” value [13, 19] was 30 and the “Plant response rating, Sandbur” value ([14]; 31 g ai/ha, scale 0 to 100) was 70. The “Plant response rating, Sandbur” value [14, 17] was 90, the “Plant response rating, Sandbur” value [14, 18] was 90 and the “Plant response rating, Sandbur” value [14, 19] was 70. For the same compound, the “Plant response rating, Prickly Sida” value ([15]; 31 g ai/ha, scale 0 to 100) was 35, the “Plant response rating, Prickly Sida” value [15, 17] was 75 and the “Plant response rating, Prickly Sida” value [15, 18] was 75. For the same compound, the “Plant response rating, Prickly Sida” value [15, 19] was 65, the “Plant response rating, Crabgrass, Large” value ([16]; 31 g ai/ha, scale 0 to 100) was 40 and the “Plant response rating, Crabgrass, Large” value [16, 17] was 65. For the same compound, the “Plant response rating, Crabgrass, Large” value [16, 18] was 70 and the “Plant response rating, Crabgrass, Large” value [16, 19] was 65.

From patent publication US8952024B2, “Herbicidal pyrimidone derivatives” (E I du Pont de Nemours and Company, priority 2009, dated 2015)
